In patent US8268795B2 (priority 2005, dated 2012):
Structures can show the parent of a compound that is named as a salt. Where two headings read alike, the source gives them in different places.

Tests used:
Format in all cases: cell-based, rabbit
[1] = target: T1, VDCC currents in cerebral artery myocytes (Oryctolagus cuniculus, UniProt Q02343)
T1 construct: Vascular smooth muscle cells were enzymatically isolated from cerebral arteries as previously described; endogenous in cells; host or cells: freshly isolated cerebral artery myocytes from control and SAH (5 days post-surgery) New Zealand white rabbits

[2] = target: T2, VDCC currents in cerebral artery myocytes (Oryctolagus cuniculus, UniProt P15381)
T2 construct: Vascular smooth muscle cells were enzymatically isolated from cerebral arteries as previously described; endogenous in cells; host or cells: freshly isolated cerebral artery myocytes from control and SAH (5 days post-surgery) New Zealand white rabbits

[3] = tested on: small diameter cerebral arteries from control and SAH rabbits
[4] = tested on: small diameter cerebral arteries constricted by 60 mmol/L K+; assay: tissue or blood
[5] = tested on: VDCC currents in cerebral artery myocytes

T2 sequence (P15381 1-2166 isoform P15381-4): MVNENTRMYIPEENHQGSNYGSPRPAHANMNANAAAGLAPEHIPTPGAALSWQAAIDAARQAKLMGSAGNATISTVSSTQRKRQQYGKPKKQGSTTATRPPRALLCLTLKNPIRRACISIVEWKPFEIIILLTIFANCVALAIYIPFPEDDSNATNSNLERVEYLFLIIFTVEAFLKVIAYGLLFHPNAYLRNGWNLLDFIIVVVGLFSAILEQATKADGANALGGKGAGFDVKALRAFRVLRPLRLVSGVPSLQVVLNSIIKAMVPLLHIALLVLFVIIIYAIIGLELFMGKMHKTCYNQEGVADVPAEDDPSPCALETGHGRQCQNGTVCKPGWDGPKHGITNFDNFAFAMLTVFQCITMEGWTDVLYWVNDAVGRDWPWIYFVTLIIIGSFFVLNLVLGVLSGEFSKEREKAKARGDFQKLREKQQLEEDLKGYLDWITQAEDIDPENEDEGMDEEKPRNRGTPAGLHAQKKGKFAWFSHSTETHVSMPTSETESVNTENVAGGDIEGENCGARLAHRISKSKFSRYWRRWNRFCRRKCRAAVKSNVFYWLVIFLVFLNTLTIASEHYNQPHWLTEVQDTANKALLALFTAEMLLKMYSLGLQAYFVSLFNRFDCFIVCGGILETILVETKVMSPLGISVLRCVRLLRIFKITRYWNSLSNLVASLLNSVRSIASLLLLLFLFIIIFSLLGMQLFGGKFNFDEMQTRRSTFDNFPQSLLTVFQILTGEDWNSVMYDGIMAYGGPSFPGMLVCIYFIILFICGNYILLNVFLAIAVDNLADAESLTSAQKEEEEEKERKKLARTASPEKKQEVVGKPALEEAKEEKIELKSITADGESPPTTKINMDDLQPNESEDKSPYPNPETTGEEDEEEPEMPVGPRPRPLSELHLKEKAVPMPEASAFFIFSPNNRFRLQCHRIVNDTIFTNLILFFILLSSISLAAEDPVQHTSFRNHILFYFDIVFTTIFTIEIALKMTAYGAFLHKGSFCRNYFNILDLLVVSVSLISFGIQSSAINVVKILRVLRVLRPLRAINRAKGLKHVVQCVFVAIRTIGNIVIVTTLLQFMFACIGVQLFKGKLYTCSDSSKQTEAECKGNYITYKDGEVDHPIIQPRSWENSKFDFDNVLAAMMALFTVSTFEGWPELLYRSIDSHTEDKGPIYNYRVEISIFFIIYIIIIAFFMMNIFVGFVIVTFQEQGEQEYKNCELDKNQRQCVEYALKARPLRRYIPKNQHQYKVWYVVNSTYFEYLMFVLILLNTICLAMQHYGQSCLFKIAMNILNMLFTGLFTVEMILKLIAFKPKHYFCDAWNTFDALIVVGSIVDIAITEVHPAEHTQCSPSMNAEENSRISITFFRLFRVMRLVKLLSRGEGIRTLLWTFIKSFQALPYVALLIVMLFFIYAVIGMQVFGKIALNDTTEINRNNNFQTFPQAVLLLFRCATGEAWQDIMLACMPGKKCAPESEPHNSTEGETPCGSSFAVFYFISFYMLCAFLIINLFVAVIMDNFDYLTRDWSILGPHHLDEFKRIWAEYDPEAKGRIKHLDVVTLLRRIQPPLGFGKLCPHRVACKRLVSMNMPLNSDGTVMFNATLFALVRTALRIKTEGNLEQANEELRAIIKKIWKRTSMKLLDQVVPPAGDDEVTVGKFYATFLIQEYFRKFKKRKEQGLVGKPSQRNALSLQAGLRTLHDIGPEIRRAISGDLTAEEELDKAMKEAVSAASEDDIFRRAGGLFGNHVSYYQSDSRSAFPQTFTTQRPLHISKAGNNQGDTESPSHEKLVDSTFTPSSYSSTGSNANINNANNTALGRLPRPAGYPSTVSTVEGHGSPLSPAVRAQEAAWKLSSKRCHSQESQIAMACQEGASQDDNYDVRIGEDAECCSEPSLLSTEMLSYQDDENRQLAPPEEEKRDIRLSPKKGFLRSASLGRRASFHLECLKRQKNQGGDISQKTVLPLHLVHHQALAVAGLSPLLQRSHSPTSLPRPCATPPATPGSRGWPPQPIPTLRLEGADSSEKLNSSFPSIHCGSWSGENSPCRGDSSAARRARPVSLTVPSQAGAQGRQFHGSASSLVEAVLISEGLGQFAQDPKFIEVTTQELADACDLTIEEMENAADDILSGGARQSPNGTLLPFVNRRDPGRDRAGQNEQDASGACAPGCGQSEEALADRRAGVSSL
T1 sequence (Q02343 whole entry): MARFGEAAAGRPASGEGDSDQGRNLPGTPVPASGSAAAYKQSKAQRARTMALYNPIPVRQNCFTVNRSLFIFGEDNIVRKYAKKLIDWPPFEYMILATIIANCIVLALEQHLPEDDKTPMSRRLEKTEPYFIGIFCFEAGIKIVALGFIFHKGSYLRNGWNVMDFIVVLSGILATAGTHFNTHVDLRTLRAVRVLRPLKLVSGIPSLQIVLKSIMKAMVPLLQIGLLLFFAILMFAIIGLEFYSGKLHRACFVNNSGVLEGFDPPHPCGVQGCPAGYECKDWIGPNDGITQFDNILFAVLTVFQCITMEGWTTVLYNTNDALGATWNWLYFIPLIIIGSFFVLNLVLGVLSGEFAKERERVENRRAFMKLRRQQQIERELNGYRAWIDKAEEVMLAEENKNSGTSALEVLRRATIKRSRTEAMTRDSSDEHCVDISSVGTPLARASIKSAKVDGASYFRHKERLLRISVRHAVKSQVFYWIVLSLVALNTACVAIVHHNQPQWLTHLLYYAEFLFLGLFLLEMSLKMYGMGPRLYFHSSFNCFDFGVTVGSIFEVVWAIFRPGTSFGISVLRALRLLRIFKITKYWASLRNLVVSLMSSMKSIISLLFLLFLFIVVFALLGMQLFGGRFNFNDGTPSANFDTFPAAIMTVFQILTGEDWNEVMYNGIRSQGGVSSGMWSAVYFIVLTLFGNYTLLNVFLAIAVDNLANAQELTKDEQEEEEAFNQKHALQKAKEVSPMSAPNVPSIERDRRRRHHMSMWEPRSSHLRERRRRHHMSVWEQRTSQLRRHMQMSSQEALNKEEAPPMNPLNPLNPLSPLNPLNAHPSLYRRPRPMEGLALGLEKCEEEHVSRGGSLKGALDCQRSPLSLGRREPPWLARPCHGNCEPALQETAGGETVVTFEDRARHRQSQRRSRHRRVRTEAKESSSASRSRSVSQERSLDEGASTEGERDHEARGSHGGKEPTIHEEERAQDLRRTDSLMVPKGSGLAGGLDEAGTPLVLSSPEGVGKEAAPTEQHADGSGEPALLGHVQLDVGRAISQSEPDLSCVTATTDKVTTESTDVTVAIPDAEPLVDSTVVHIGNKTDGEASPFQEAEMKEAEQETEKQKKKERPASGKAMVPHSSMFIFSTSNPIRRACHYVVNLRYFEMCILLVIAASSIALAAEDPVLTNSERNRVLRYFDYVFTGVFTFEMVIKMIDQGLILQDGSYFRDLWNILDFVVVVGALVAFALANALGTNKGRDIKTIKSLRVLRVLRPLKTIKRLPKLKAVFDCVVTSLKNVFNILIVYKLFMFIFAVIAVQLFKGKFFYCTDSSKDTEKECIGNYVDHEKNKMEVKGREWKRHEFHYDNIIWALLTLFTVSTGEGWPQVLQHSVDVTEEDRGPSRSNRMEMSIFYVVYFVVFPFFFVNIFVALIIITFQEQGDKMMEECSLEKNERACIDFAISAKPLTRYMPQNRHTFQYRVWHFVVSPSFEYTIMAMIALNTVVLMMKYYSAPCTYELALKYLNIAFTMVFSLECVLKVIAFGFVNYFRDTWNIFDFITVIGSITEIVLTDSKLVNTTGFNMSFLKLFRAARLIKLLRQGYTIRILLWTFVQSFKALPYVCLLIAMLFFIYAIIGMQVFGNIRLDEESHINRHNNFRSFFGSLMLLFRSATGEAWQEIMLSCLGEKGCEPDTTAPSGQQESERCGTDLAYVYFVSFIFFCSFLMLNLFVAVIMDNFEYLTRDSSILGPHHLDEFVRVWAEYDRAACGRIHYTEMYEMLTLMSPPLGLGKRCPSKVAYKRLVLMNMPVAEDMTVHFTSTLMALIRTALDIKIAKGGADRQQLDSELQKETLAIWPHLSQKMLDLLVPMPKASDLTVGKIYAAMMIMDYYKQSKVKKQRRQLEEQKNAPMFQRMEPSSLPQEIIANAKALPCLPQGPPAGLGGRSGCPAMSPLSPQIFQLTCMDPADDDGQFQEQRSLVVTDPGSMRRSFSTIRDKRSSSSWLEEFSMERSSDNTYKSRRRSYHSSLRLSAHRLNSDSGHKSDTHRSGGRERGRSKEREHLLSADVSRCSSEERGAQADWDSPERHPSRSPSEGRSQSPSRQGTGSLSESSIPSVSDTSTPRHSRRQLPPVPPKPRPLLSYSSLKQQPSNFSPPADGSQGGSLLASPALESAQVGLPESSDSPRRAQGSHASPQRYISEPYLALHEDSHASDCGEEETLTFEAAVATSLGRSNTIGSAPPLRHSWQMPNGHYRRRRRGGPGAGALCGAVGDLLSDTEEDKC

Molecule: [Cd] [cadmium]
- VDCC currents resistant to nifedipine (10 μmol/L) ([1]; SAH myocytes, cadmium 200 μmol/L, n=4, data not shown): abolished

Molecule: H-Gly-Val-Asp-Lys-Ala-Gly-Cys-Arg-Tyr-Met-Phe-Gly-Gly-Cys-Ser-Val-Asn-Asp-Asp-Cys-Cys-Pro-Arg-Leu-Gly-Cys-His-Ser-Leu-Phe-Ser-Tyr-Cys-Ala-Trp-Asp-Leu-Thr-Phe-Ser-Asp-OH (H-GVDKAGCRYMFGGCSVNDDCCPRLGCHSLFSYCAWDLTFSD-OH; cysteine pairing not given here) [SNX-482]
- effect on VDCC currents ([2]; myocytes from control animals, SNX-482 200 nmol/L): no effect
- reduction of VDCC currents ([1]; myocytes from SAH animals, SNX-482 200 nmol/L): approximately 30%
- dilation of pressurized cerebral arteries ([3]; arteries from SAH animals, pressurized to 100 mmHg): approximately 30%
- effect on pressurized arteries ([3]; arteries from control animals, pressurized to 100 mmHg): no significant effect
- dilation of cerebral arteries in the absence of diltiazem ([4]; arteries constricted with 60 mmol/L K+, SNX-482 220 nmol/L alone): can dilate
- residual constriction observed in the presence of diltiazem ([4]; arteries cultured with oxyhemoglobin for 5 days, 60 mM K+, 1 mmol/L diltiazem, then SNX-482 220 nmol/L): effectively reversed

Molecule: ω-Conotoxin GVIA
- peak inward currents at +20 mV [5]: did not alter

Molecule: ω-Agatoxin IVA
- peak inward currents at +20 mV ([5]; SAH myocytes, 100 nmol/L): did not alter

Molecule: COc1ccc([C@@H]2Sc3ccccc3N(CCN(C)C)C(=O)[C@@H]2OC(C)=O)cc1 (relative stereo) [diltiazem, benzothiazepin-4(5H)-one, 3-(acetyloxy)-5-[2-(dimethylamino)ethyl]-2,3-dihydro-2-(4-methoxyphenyl)-,(+)-cis-,monohydrochloride]
- block of membrane currents [2]: completely blocked
- current resistant to the L-type VDCC antagonist [5]: approximately 20%
- pressure-induced constriction at 100 mmHg ([3]; arteries from control animals, diltiazem 50 μmol/L): abolished
- IC50 ([4]; Oryctolagus cuniculus, 120 h): 16900 ± 6900 nM
- EC50 ([4]; Oryctolagus cuniculus, B164, 0 h, read-out: EC50 of diltiazem treatment of K+ induced constricted arteries, Day 0, −Oxy Hb): 1020 ± 70 nM
- EC50 ([4]; Oryctolagus cuniculus, B164, 24 h, read-out: EC50 of diltiazem treatment of K+ induced constricted arteries, Day 1, +Oxy Hb): 950 ± 140 nM
- EC50 ([4]; Oryctolagus cuniculus, B164, 24 h, read-out: EC50 of diltiazem treatment of K+ induced constricted arteries, Day 1, −Oxy Hb): 760 ± 70 nM
- EC50 ([4]; Oryctolagus cuniculus, B164, 72 h, read-out: EC50 of diltiazem treatment of K+ induced constricted arteries, Day 3, +Oxy Hb): 1070 ± 60 nM
- EC50 ([4]; Oryctolagus cuniculus, B164, 72 h, read-out: EC50 of diltiazem treatment of K+ induced constricted arteries, Day 3, −Oxy Hb): 780 ± 120 nM
- EC50 ([4]; Oryctolagus cuniculus, B164, 120 h, read-out: EC50 of diltiazem treatment of K+ induced constricted arteries, Day 5, +Oxy Hb): 16900 ± 6900 nM
- EC50 ([4]; Oryctolagus cuniculus, B164, 120 h, read-out: EC50 of diltiazem treatment of K+ induced constricted arteries, Day 5, −Oxy Hb): 1100 ± 100 nM
- reduction of K+-induced constriction ([4]; […], diltiazem 1 mmol/L, 60 mmol/L K+): 99.7±0.4%
